According to US11793880B2, “Conjugates of quaternized tubulysin compounds” (Seagen Inc., priority 2015, dated 2023):
pIC50: −log10 of the molar value.

How the values were obtained:
HepG2, HCC = assay: In vitro assays - TubOEt analogues, CellTiter-Glo growth inhibition; format: cell-based; settings: Homo sapiens, Table 3, lantern-made analogues >85% purity, 96 hour exposure
Procedure: (§1) In vitro assays. Cells cultured in log-phase growth were seeded for 24 h in 96-well plates containing 150 μL RPMI 1640 supplemented with 20% FBS. Serial dilutions of antibody-drug conjugates in cell culture media were prepared at 4× working concentrations; 50 μL of each dilution was added to the 96-well plates. Following addition of ADC, cells were incubated with test articles for 4 d at 37° C. After 96 h, growth inhibition was assessed by CellTiter-Glo® (Promega, Madison, WI) and luminescence was measured on a plate reader. The IC50 value, determined in triplicate, is defined here as the concentration that results in a 50% reduction in cell growth relative to untreated controls.
(§2) A series of analogues of the ethyl ether tubulysin compound TubOEt (41) were synthesized on solid phase lanterns that maintain the ethyl ether substitution, while either varying the residue at the Ile position (203-215) or the Mep position (216-221). Following cleavage from the solid phase, the analogues were obtained in >85% purity and tested without further purification. The compounds were tested in vitro for potency relative to a sample of TubOEt synthesized in parallel on a lantern (41-lantern), following a 96 hour exposure, with IC5O values expressed in nM (Table 3). While in many cases an attenuation in activity was observed relative to 41-lantern, some well-tolerated substitutions were found. […] While this stereochemical preference is not observed when Ile is replaced with O-methyl threonine (207) or O-methyl allothreonine (206), bulkier substituents led to a greater differentiation. […] Replacement of the Mep residue was generally less-well tolerated.

U266 MM = assay: as above; format: cell-based; settings: Homo sapiens, U-266; Table 3; lantern-made analogues >85% purity, 96 hour exposure
Procedure: as §1, §2

Ramos, NHL = assay: as above; format: cell-based; settings: Homo sapiens, Table 3, lantern-made analogues >85% purity, 96 hour exposure
Procedure: as §1, §2

L540cy, HL [1] = assay: In vitro assays - tubulysin free drugs, CellTiter-Glo growth inhibition; format: cell-based
Procedure: as §1
(§3) In vitro assays—tubulysin free drugs. Cells were treated for 96 hours with tubulysin ether analogs (40-42) or tubulysin M (7), then assessed for viability as described in the methods.
(§4) The tubulysin ester analogs (133-137) and unsaturated ether analogs (176-179) were tested in vitro for potency relative to tubulysin M (7), following a 96 hour exposure. As shown by IC50 values (nM) of Table 2, Tubulysin esters 133-136 performed comparably to tubulysin M, with similar potencies across of the cell lines.
as §2

HL60, AML = assay: as above; format: cell-based
Procedure: as §1, §3, §4, §2

HL60/RV, MDR + AML = assay: as above; format: cell-based
Procedure: as §1, §3, §4, §2

[2] = tested on: HepG2, L540cy, Ramos, U266, HL60, HL60/RV cell lines; assay: In vitro assays - TubOEt analogues, statements across the cell line panel; format: cell-based; settings: Table 3 cell lines, 96 hour exposure
Procedure: as §1, §2

Karpas299, ALCL = assay: In vitro assays - tubulysin free drugs, CellTiter-Glo growth inhibition; format: cell-based; settings: free drug
Procedure: as §1, §3, §4

L428, MDR + HL [3] = assay: as above; format: cell-based; settings: free drug
Procedure: as §1, §3, §4

L540cy, HL [4] = settings: Table 4; cAC10 ADCs DAR 8, 96 h
Procedure: (§5) In vitro assays. Cells cultured in log-phase growth were seeded for 24 h in 96-well plates containing 150 μL RPMI 1640 supplemented with 20% FBS. Serial dilutions of antibody-drug conjugates in cell culture media were prepared at 4× working concentrations; 50 μL of each dilution was added to the 96-well plates. […] After 96 h, growth inhibition was assessed by CellTiter-Glo® (Promega, Madison, WI) and luminescence was measured on a plate reader.
(§6) In vitro assays—tubulysin ADCs. ADCs were prepared by t Ell reduction of interchain disulfides to reveal 8-conjugatable cysteines/antibody that were alkylated through Michael addition with the maleimide-containing Drug Linker compounds. […] conjugates hearing quaternized tubulysin ethers with and without a PEG12 side-chain were compared to their tubulysin M analogs.
(§7) Several hydrophilic linker constructs incorporating quaternized tubulysin M were prepared and evaluated in vitro; the results are shown in Table 5. The data (IC50 values in ng/mL) indicate that Conjugates prepared from Drug Linker compounds having quaternized tubulysin M linked via a hydrophilic ValGlu dipeptide with (95) or without (91) a PEG12 side chain, or linked via a hydrophilic glucuronide (82) provide ADCs that are equipotent to the ValAla comparator (15).

DEL/BVR, MDR + ALCL = settings: Table 4; cAC10 ADCs DAR 8, 96 h
Procedure: as §5, §6, §7

L428, MDR + HL [5] = settings: Table 4; cAC10 ADCs DAR 8, 96 h
Procedure: as §5, §6, §7

[6] = L540cy, 96 h, Table 3, lantern-made analogues >85% purity, 96 hour exposure
[7] = Homo sapiens, HL-60, 96 h, Table 3, lantern-made analogues >85% purity, 96 hour exposure
[8] = L540cy, 96 h, Table 2, free drug, 96 hour exposure
[9] = Homo sapiens, HL-60, 96 h, Table 2, free drug, 96 hour exposure
[10] = Homo sapiens, KARPAS-299, 96 h, Table 2, 96 hour exposure
[11] = Homo sapiens, L-428, 96 h, Table 2, 96 hour exposure
[12] = Homo sapiens, HL-60, 96 h, Table 1 (examples), free drug, 96 hours
[13] = Table 1 (examples), free drug, 96 hours

CCO[C@H](C[C@H](C(C)C)N(C)C(=O)[C@@H](NC(=O)C1CCC(F)(F)CN1C)[C@@H](C)CC)c1nc(C(=O)N[C@@H](Cc2ccccc2)C[C@H](C)C(=O)O)cs1 (stereo partly drawn) [Compound 216, (2S,4R)-4-(2-((1R,3R)-3-((2S,3S)-2-(5,5-difluoro-1-methylpiperidine-2-carboxamido)-N,3-dimethylpentanamido)-1-ethoxy-4-methylpentyl)thiazole-4-carboxamido)-2-methyl-5-phenylpentanoic acid]
pIC50 (HepG2, HCC): 7.24 | pIC50 (U266 MM): 8.05 | pIC50 (Ramos, NHL): 8.00 | pIC50 (L540cy, HL [1]; [6]): 7.92 | pIC50 (HL60, AML; [7]): 7.21 | pIC50 (HL60/RV, MDR + AML; [7]): < 6.00 | potency / cytotoxicity of TubOEt analogues, in words [2]: decrease in the observed cytotoxicity

CCO[C@H](C[C@H](C(C)C)N(C)C(=O)[C@@H](NC(=O)[C@H]1CCCCN1C)[C@@H](C)OC(C)(C)C)c1nc(C(=O)N[C@@H](Cc2ccccc2)C[C@H](C)C(=O)O)cs1 [Compound 215, (2S,4R)-4-(2-((1R,3R)-3-((2S,3R)-3-(tert-butoxy)-N-methyl-2-((R)-1-methylpiperidine-2-carboxamido)butanamido)-1-ethoxy-4-methylpentyl)thiazole-4-carboxamido)-2-methyl-5-phenylpentanoic acid]
pIC50 (HepG2, HCC): 9.00 | pIC50 (U266 MM): 10.00 | pIC50 (Ramos, NHL): 9.70 | pIC50 (L540cy, HL [1]; [6]): 9.70 | pIC50 (HL60, AML; [7]): 9.00 | pIC50 (HL60/RV, MDR + AML; [7]): 7.48 | potency / cytotoxicity of TubOEt analogues, in words [2]: significantly more potent

CCO[C@H](C[C@H](C(C)C)N(C)C(=O)[C@@H](NC(=O)[C@H]1[C@H]2CC[C@H](CC2)N1C)[C@@H](C)CC)c1nc(C(=O)N[C@@H](Cc2ccccc2)C[C@H](C)C(=O)O)cs1 [Compound 218]
pIC50 (HepG2, HCC): 8.05 | pIC50 (U266 MM): 8.15 | pIC50 (Ramos, NHL): 8.22 | pIC50 (L540cy, HL [1]; [6]): 8.30 | pIC50 (HL60, AML; [7]): 7.62 | pIC50 (HL60/RV, MDR + AML; [7]): < 6.00 | potency / cytotoxicity of TubOEt analogues, in words [2]: decrease in the observed cytotoxicity

CCCC(=O)O[C@H](C[C@H](C(C)C)N(C)C(=O)[C@@H](NC(=O)[C@H]1CCCCN1C)[C@@H](C)CC)c1nc(C(=O)N[C@@H](Cc2ccccc2)C[C@H](C)C(=O)O)cs1 [Compound 134, (2S,4R)-4-(2-((1R,3R)-1-(butyryloxy)-3-((2S,3S)—N,3-dimethyl-2-((R)-1-methylpiperidine-2-carboxamido)pentanamido)-4-methylpentyl)thiazole-4-carboxamido)-2-methyl-5-phenylpentanoic acid]
pIC50 (L540cy, HL [1]; [8]): 10.40 | pIC50 (HL60, AML; [9]): 10.10 | pIC50 (HL60/RV, MDR + AML; [9]): 8.52 | pIC50 (Karpas299, ALCL; [10]): 10.96 | pIC50 (L428, MDR + HL [3]; [11]): 10.30

CCO[C@H](C[C@H](C(C)C)N(C)C(=O)[C@@H](NC(=O)[C@@]1(C)CCCN1C)[C@@H](C)CC)c1nc(C(=O)N[C@@H](Cc2ccccc2)C[C@H](C)C(=O)O)cs1 [Compound 221, (2S,4R)-4-(2-((1R,3R)-3-((2S,3S)-2-((R)-1,2-dimethylpyrrolidine-2-carboxamido)-N,3-dimethylpentanamido)-1-ethoxy-4-methylpentyl)thiazole-4-carboxamido)-2-methyl-5-phenylpentanoic acid]
pIC50 (HepG2, HCC): 8.40 | pIC50 (U266 MM): 8.70 | pIC50 (Ramos, NHL): 9.00 | pIC50 (L540cy, HL [1]; [6]): 9.00 | pIC50 (HL60, AML; [7]): 7.92 | pIC50 (HL60/RV, MDR + AML; [7]): 6.28 | potency / cytotoxicity of TubOEt analogues, in words [2]: most potent compounds obtained in this series

CCC(=O)O[C@H](C[C@H](C(C)C)N(C)C(=O)[C@@H](NC(=O)[C@H]1CCCCN1C)[C@@H](C)CC)c1nc(C(=O)N[C@@H](Cc2ccccc2)C[C@H](C)C(=O)O)cs1 [Compound 133, (2S,4R)-4-(2-((1R,3R)-3-((2S,3S)—N,3-dimethyl-2-((R)-1-methylpiperidine-2-carboxamido)pentanamido)-4-methyl-1-(propionyloxy)pentyl)thiazole-4-carboxamido)-2-methyl-5-phenylpentanoic acid]
pIC50 (L540cy, HL [1]; [8]): 10.22 | pIC50 (HL60, AML; [9]): 10.00 | pIC50 (HL60/RV, MDR + AML; [9]): 9.00 | pIC50 (Karpas299, ALCL; [10]): 10.70 | pIC50 (L428, MDR + HL [3]; [11]): 10.40

CC[C@H](C)[C@H](NC(=O)[C@H]1CCCCN1C)C(=O)N(C)[C@H](C[C@@H](OC)c1nc(C(=O)N[C@@H](Cc2ccccc2)C[C@H](C)C(=O)O)cs1)C(C)C [Compound 40, (2S,4R)-4-(2-((1R,3R)-3-((2S,3S)—N,3-dimethyl-2-((R)-1-methylpiperidine-2-carboxamido)pentanamido)-1-methoxy-4-methylpentyl)thiazole-4-carboxamido)-2-methyl-5-phenylpentanoic acid]
pIC50 (L540cy, HL [1]; L540cy, 96 h, Table 1 (examples), free drug): 9.92 | pIC50 (HL60, AML; [12]): 9.89 | pIC50 (HL60/RV, MDR + AML; [12]): 7.54 | pIC50 (Karpas299, ALCL; Homo sapiens, KARPAS-299, 96 h, Table 1 (examples), 96 hours): 9.72 | pIC50 (L428, MDR + HL [3]; Homo sapiens, L-428, 96 h, Table 1 (examples), 96 hours): 9.30

CC[C@H](C)[C@H](NC(=O)[C@H]1CCCCN1C)C(=O)N(C)[C@H](C[C@@H](OC(=O)CC(C)C)c1nc(C(=O)N[C@@H](Cc2ccccc2)C[C@H](C)C(=O)O)cs1)C(C)C [Compound 136, (2S,4R)-4-(2-((1R,3R)-3-((2S,3S)—N,3-dimethyl-2-((R)-1-methylpiperidine-2-carboxamido)pentanamido)-4-methyl-1-((3-methylbutanoyl)oxy)pentyl)thiazole-4-carboxamido)-2-methyl-5-phenylpentanoic acid]
pIC50 (L540cy, HL [1]; [8]): 10.22 | pIC50 (HL60, AML; [9]): 10.40 | pIC50 (HL60/RV, MDR + AML; [9]): 8.22 | pIC50 (Karpas299, ALCL; [10]): 10.70 | pIC50 (L428, MDR + HL [3]; [11]): 9.96

CCCO[C@H](C[C@H](C(C)C)N(C)C(=O)[C@@H](NC(=O)[C@H]1CCCCN1C)[C@@H](C)CC)c1nc(C(=O)N[C@@H](Cc2ccccc2)C[C@H](C)C(=O)O)cs1 [Compound 42, (2S,4R)-4-(2-((1R,3R)-3-((2S,3S)—N,3-dimethyl-2-((R)-1-methylpiperidine-2-carboxamido)pentanamido)-4-methyl-1-propoxypentyl)thiazole-4-carboxamido)-2-methyl-5-phenylpentanoic add]
pIC50 (L540cy, HL [1]; [13]): 9.89 | pIC50 (HL60, AML; [13]): 9.77 | pIC50 (HL60/RV, MDR + AML; [13]): 7.85 | pIC50 (Karpas299, ALCL; Table 1 (examples), 96 hours): 9.82 | pIC50 (L428, MDR + HL [3]; Table 1 (examples), 96 hours): 9.40

CCCO[C@H](C[C@H](C(C)C)N(C)C(=O)[C@@H](NC(=O)[C@H]1CCCC[N+]1(C)Cc1ccc(O[C@@H]2O[C@H](C(=O)O)[C@@H](O)[C@H](O)[C@H]2O)c(NC(=O)CCNC(=O)[C@H](CN)N2C(=O)C=CC2=O)c1)[C@@H](C)CC)c1nc(C(=O)N[C@@H](Cc2ccccc2)C[C@H](C)C(=O)O)cs1 (some centres unmarked) [Compound 58]
IC50, L540cy, HL (L540cy, HL [4]): 0.006 µg/mL | IC50, DEL/BVR, MDR + ALCL (DEL/BVR, MDR + ALCL): 0.01 µg/mL | IC50, L428, MDR + HL (L428, MDR + HL [5]): 0.117 µg/mL
